Key:
[1] = test system: live mouse fibroblast 3T3 cells; assay: Ratiometric imaging of labile Zn(II) by TPEM (excitation at 750 nm); assay type: cell-based
Procedure: With reference to FIG. 7A, emission-ratiometric imaging of labile Zn(II) pools in live mouse fibroblast 3T3 cells with Formula I, Formula II, and/or a derivative thereof (e.g., for example probe 8) by TPEM (excitation at 750 nm). (A) of FIG. 7A Left: The emission was collected with 520 nm-600 nm (BP2) and 440 nm-495 nm (BP1) bandpass filters respectively. Right: Intensity ratio images with R=BP2/BP1. (B) of FIG. 7A Left: Ratio images (BP2/BP1) before (prior to t=5 min) and after the addition of 50 μM ZnSO4 and 5.0 μM pyrithione. Addition of TPEN at t=15 min resulted the reversal of the initial of fluorescence ratio change. (C) of FIG. 7A Mean fluorescence ratio of the cytoplasmic region averaged over 10 cells (P values calculated for n=10 using a two-tailed test). (D) of FIG. 7A Time course of the average ratio change for the mean fluorescence ratio in the cytosol averaged over 10 cells.
To evaluate the Zn(II)-dependent ratiometric response of Formula I and/or Formula IA (e.g., for example probe 8) in live cells, imaging experiments were performed with live mouse fibroblasts (3T3) as model cell line.
In various embodiments, mouse fibroblast (3T3) cells were grown on poly-L-lysine treated glass bottom culture dishes (MatTek) to 90% confluency in DMEM growth media supplemented with 10% bovine calf serum, and 1% penicillin-streptomycin. Before imaging, the media was replaced with pre-warmed colorless serum-free DMEM (1% penicillin-streptomycin, and 1% sodium pyruvate) containing 1.0 μM of probe 8. The cells were incubated at 37° C. under an atmosphere of humidified air containing 5% CO2 for 15 mins. The incubation solution was replaced with prewarmed colorless serum free DMEM. Images were acquired at 37° C., 8% humidity, and 5% CO2 using a Zeiss LSM NLO 710 microscope equipped with a femtosecond pulsed Ti:sapphire laser and a blue 405 nm laser. Scanning fluorescence micrographs were acquired with excitation at 405 nm or 750 nm and the emission was simultaneously collected with bandpass ranges of 495-440 nm (BP1) and 600-520 nm (BP2). Image J was used to evaluate the change in fluorescence emission ratio over time as previously described. The emission ratio for each region of interest was averaged at each time point.
TPEN solid was fully dissolved in anhydrous DMSO to a concentration of 3.0 mM. The stock solution was further diluted to 1.0 mM in pre-warmed phenol-red-free DMEM media before each imaging experiments. The ZnSO4 stock solution was prepared in DI H2O and the pyrithione stock solution was prepared in anhydrous DMSO to a concentration of 3.0 mM. The stock solution of Zn(II)/pyrithione was prepared and diluted with phenol red free DMEM. To determine the limiting emission intensity ratios Rmin and Rmax, mouse fibroblast cells were supplemented with Zn(II)-pyrithione (50 μM ZnSO4 and 5.0 μM pyrithione), and then TPEN (100 μM).

[2] = Fluorometric competition titration with EGTA, Zn(II) complex stability constant; assay type: binding
Procedure: FIG. 6A illustrates the fluorometric determination of the Zn(II) complex stability constant of probe 8 via competition titration with EGTA. (A) of FIG. 6A illustrates an exemplary Formula I, Formula II, and/or a derivative thereof (e.g., for example probe 8) (10 μM) that was equilibrated with molar equivalent of Zn(OTf)2 in chelexed PIPES buffer (pH 7.0, 10 mM PIPES, 0.1 M KCl, 25° C.) containing 100 μM 4:1 DMPC:DMPG liposomes and titrated with EGTA to a final concentration of 50 μM. The fluorescence spectra (excitation at 405 nm) were analyzed by non-linear least squares fitting. (B) FIG. 6A illustrates an exemplary change in fluorescence response at 515 nm with the corresponding fit using the equilibrium system model as defined in the table of FIG. 6B.
The binding affinity of Formula I, Formula II, and/or a derivative thereof (e.g., for example probe 8) was analyzed in PIPES buffer containing 100 μM of 4:1 DMPC:DMPG liposomes (pH 7.0, 10 mM PIPES, 0.1 M KCl, 25° C.). […] The binding affinity is over 400-fold weaker than chromis-1 acid, and approximately 10-fold lower than chromis-1 ester. The discrepancy in binding affinities is likely due to a combination of two factors. […]
A solution of Formula I, Formula II, and/or a derivative thereof (e.g., for example probe 8) was diluted from a 3.0 mM DMSO stock solution to a final concentration of 10 μM in Chelex®-treated PIPES buffer (10 mM, 0.1 M KCl, pH 7.0) containing 10 μM of Zn(OTf)2 and 100 μM of liposomes (4:1 mixture of DMPC and DMPG). […] After the addition of each aliquot of EGTA, the solution was allowed to equilibrate for 1 minute, and a fluorescence spectrum (excitation at 405 nm, spectral window 415-665 nm) was acquired. The titration was conducted in triplicate, and the data were analyzed by nonlinear least-squares fitting over the entire spectral range using the SPECFIT software package.

binding affinity weaker than chromis-1 acid ([2]; Zn(II) affinity compared with chromis-1 acid): over 400 fold
binding affinity lower than chromis-1 ester ([2]; Zn(II) affinity compared with chromis-1 ester): approximately 10 fold
Kd ([2]; pH 7.0, ionic background 0.1 M KCl, 25° C., liposomes, read-out: apparent dissociation constant Kd for Zn(II)): 18.5 nM
Structure (SMILES): COc1ccc2c(c1)C(C)(C)c1nc(-c3cccc(CN(Cc4ncccn4)Cc4ncccn4)n3)sc1-2 [probe 8]
cellular uptake ([1]; 3T3 cells, TPEM): readily internalized
average fluorescence ratio R (BP2/BP1) ([1]; after 50 μM ZnSO4 and 5.0 μM pyrithione, TPEM 750 nm): 1.35±0.16
average fluorescence ratio R (BP2/BP1) ([1]; after TPEN, TPEM 750 nm): 0.59±0.05
increase of fluorescence ratio ([1]; after Zn(II)/pyrithione against basal, TPEM 750 nm): more than 2 fold
average fluorescence ratio R (BP2/BP1) ([1]; basal, 1.0 μM probe, TPEM 750 nm): 0.59±0.06

Source: patent US20240410831A1, “Multi-Mode Zinc-Selective Emission-Ratiometric Fluorescent Probes for Biological Application” (Georgia Tech Research Corporation, priority 2023, published 2024)
